Data: ChEMBL document CHEMBL3639378, “Morpholinone compounds as factor IXA inhibitors” (2015)

Target: Coagulation factor IX (Homo sapiens, UniProt P00740)
Experiment: Test substances dissolved in buffer A (50 mM α,α,α-tris (hydroxymethyl)methylamine (Tris), 100 mM NaCl, 5 mM CaCl2, 15% (v/v) ethylene glycol, pH 8.0) were mixed with factor IXa (2.0 μg/ml final concentration). The enzyme reaction was started by addition of SPECTROFLUOR FIXa (100 μM final concentration).

Chain of Coagulation factor IX (P00740 47-191 limits assumed): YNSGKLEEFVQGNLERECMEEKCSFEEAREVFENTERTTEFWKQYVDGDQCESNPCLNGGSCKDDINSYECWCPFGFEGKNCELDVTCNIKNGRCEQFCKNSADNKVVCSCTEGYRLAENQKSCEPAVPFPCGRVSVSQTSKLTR
Chain of Coagulation factor IX (P00740 227-461 limits assumed): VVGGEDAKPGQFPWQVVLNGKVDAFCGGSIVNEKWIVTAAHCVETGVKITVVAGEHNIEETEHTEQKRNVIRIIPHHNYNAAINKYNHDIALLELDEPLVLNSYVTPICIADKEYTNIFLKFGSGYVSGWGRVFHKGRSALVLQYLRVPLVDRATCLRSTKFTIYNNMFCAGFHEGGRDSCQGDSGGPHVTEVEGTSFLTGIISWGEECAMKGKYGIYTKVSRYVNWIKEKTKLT

For `Cc1ccc(CN2CCO[C@H]([C@@H](O)C(=O)Nc3ccc(C(=N)N)cc3)C2=O)cc1`, which IC50 is on record?
The IC50 was 130 nM.
